Laboratory results from article PMC4891657, “Orexin 2 Receptor Antagonism is Sufficient to Promote NREM and REM Sleep from Mouse to Man” (Scientific Reports, 2016).
Numbering of substitutions follows the chain as printed.

How the values were obtained:
[1] = molecular target: T1, OX2R (Mus musculus, UniProt P58308); assay: Inhibition of orexin-peptide-A-induced calcium mobilization in CHO cells, mouse OX2R; format: cell-based; conditions: for fold OX2R selectivity (Kb): OX1R Kb / OX2R Kb
T1 construct: expressed in transfected cells; host or cells: CHO-K1
T1 sequence (P58308 1-460): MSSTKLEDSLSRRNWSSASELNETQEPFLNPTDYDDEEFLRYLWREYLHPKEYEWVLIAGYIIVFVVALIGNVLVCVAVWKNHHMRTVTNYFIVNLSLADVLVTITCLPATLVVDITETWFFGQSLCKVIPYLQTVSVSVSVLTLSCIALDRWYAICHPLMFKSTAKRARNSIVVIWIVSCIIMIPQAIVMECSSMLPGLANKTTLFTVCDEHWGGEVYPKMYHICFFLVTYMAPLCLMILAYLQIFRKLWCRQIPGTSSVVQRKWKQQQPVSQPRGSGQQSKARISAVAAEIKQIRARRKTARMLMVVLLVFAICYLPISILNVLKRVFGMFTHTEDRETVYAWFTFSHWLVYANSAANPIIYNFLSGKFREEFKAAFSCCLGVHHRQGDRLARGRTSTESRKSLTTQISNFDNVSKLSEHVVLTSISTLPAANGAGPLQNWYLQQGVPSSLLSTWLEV
Method: (§1) MK-1064 was evaluated for its ability to inhibit orexin-peptide-A-induced calcium mobilization in CHO cell lines separately expressing OX1R and OX2R from mice, rats, rabbits, dogs, rhesus monkeys and humans.
(§2) Binding and functional blockade of OX1R and OX2R with MK-1064 relative to other 2-SORAs and the DORA, MK-6096, were assessed using membranes from Chinese hamster ovary (CHO)-K1 cells (American Type Tissue Collection, Manassas, VA) transfected to express human, mouse, rat, rabbit, dog, or rhesus monkey OX1R or OX2R receptors, as described previously. The kinetics of binding to human OX2R was assessed by radioligand displacement on CHO-K1 cells expressing the receptor. […] The ON rate analysis was performed by presoaking GF/B filters in 0.3% polyethyleneimine (Sigma) using a Skatron 12-well cell harvester and cold buffer at the indicated time points after addition. For OFF rate determination, binding reactions were allowed to proceed to equilibrium and terminated with 1000x [Kd] of unlabeled antagonist and filtered as above at pre-determined time points. Ultima Gold^TM (PerkinElmer 6013327) scintillation cocktail was added to each filter disc and counted on a PerkinElmer TriCarb 2910 scintillation counter. Data were analyzed using GraphPad® Prism v 6.04 (San Diego, CA, USA). The KON rate was determined according to the equation, KON = (KOBS − KOFF)/[ligand].

[2] = molecular target: T2, hOX1R (Homo sapiens, UniProt O43613); assay: Radio-ligand displacement binding, CHO-K1 membranes, human OX1R; conditions: read-out: OX1R affinity (Ki)
T2 construct: expressed in transfected cells; host or cells: CHO-K1
T2 sequence (O43613 1-425): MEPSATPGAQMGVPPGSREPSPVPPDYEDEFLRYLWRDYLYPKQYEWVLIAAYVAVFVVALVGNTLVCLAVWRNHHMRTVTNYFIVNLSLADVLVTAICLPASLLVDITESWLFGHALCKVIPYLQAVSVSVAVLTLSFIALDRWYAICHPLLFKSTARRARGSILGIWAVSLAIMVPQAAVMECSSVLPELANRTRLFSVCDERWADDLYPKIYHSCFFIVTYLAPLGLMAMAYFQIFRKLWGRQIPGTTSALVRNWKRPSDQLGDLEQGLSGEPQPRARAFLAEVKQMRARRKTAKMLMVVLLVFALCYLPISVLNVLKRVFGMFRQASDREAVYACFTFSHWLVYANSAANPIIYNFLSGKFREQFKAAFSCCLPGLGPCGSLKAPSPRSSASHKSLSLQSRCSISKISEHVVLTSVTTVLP
Method: as §1, §2

[3] = molecular target: T3, OX2R (Rattus norvegicus, UniProt P56719); assay: Inhibition of orexin-peptide-A-induced calcium mobilization in CHO cells, rat OX2R; format: cell-based; conditions: for fold OX2R selectivity (Kb): OX1R Kb / OX2R Kb
T3 construct: expressed in transfected cells; host or cells: CHO-K1
T3 sequence (P56719 1-460): T1 sequence (P58308 1-460) with S11P, C193R, H213R, I240V, Q269P, H387R, V424A
Method: as §1, §2

[4] = molecular target: T1, OX2R; assay: Radio-ligand displacement binding, CHO-K1 membranes, mouse OX2R; conditions: for fold OX2R selectivity (Ki): OX1R Ki / OX2R Ki; for Ki: read-out: OX2R affinity (Ki)
Method: as §1, §2

[5] = molecular target: T4, OX2R (Macaca mulatta, UniProt F7CZM2); assay: Inhibition of orexin-peptide-A-induced calcium mobilization in CHO cells, rhesus OX2R; format: cell-based, rhesus monkey; conditions: for fold OX2R selectivity (Kb): OX1R Kb / OX2R Kb
T4 sequence (F7CZM2 1-444): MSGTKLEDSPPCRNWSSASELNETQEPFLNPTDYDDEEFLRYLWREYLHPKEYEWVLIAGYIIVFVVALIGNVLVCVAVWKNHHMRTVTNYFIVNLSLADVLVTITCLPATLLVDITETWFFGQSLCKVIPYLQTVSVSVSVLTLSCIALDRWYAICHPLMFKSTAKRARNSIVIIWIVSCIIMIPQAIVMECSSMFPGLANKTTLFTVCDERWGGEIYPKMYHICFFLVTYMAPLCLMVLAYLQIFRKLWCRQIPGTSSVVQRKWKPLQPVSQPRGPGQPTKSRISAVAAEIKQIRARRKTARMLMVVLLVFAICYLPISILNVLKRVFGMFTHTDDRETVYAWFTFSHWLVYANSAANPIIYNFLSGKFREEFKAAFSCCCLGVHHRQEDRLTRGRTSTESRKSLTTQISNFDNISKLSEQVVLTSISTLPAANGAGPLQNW
Method: as §1, §2

COc1ccc(CNC(=O)c2cc(-c3cncc(Cl)c3)cnc2-c2ccccn2)nc1OC [MK-1064, 5″-chloro-N-[(5,6-dimethoxypyridin-2-yl)methyl]-2,2′:5′, 3″-terpyridine-3′-carbo xamide]
Kb [1]: 0.007 µM
fold OX2R selectivity (Kb) [1]: [1471] fold
Ki [2]: 1.5 µM
Kb [3]: 0.013 µM
fold OX2R selectivity (Kb) [3]: [613] fold
fold OX2R selectivity (Ki) [4]: [1136] fold
Ki [4]: 0.00102 µM
Kb [5]: 0.009 µM
fold OX2R selectivity (Kb) [5]: [375] fold

COc1ccc(CNC(=O)c2cc(-c3cncc(C)c3)ncc2-c2nccs2)nc1OC [MK-3697]
Kb [1]: 0.012 µM
Kb [3]: 0.031 µM
Ki [4]: 0.00147 µM
Kb [5]: 0.02 µM

Cc1ccc(-c2ncccn2)c(C(=O)N2C[C@H](COc3ccc(F)cn3)CC[C@H]2C)c1 [MK-6096]
Kb [1]: 0.01 µM
fold OX2R selectivity (Kb) [1]: [0.9] fold
Ki [2]: 0.0025 µM
Kb [3]: 0.022 µM
fold OX2R selectivity (Kb) [3]: [0.5] fold
fold OX2R selectivity (Ki) [4]: [5.2] fold
Ki [4]: 0.00056 µM
Kb [5]: 0.014 µM
fold OX2R selectivity (Kb) [5]: [1.5] fold

COc1ccc(CNC(=O)c2cc(-c3cc(Cl)cc(Cl)c3)cnc2-c2cccnc2)cc1OC [2-SORA-18]
Kb [1]: 0.024 µM
fold OX2R selectivity (Kb) [1]: [9] fold
Ki [2]: 0.1 µM
Kb [3]: 0.021 µM
fold OX2R selectivity (Kb) [3]: [50] fold
fold OX2R selectivity (Ki) [4]: [653] fold
Ki [4]: 0.00015 µM
Kb [5]: 0.023 µM
fold OX2R selectivity (Kb) [5]: [6] fold

COc1ccc(CNC(=O)c2cc(-c3cncc(C)c3)ncc2-c2ccccc2)nc1OC [2-SORA-7]
Kb [1]: 0.014 µM
fold OX2R selectivity (Kb) [1]: [568] fold
Ki [2]: 2.8 µM
Kb [3]: 0.018 µM
fold OX2R selectivity (Kb) [3]: [3238] fold
fold OX2R selectivity (Ki) [4]: [2040] fold
Ki [4]: 0.00083 µM
Kb [5]: 0.018 µM
fold OX2R selectivity (Kb) [5]: [203] fold
